Common to all, as to type: biochemical
The target of experiment [1] is T1, Recombinant human calpain I (Homo sapiens, UniProt P07384).
T1 construct: made in house
T1 sequence (P07384 1-714): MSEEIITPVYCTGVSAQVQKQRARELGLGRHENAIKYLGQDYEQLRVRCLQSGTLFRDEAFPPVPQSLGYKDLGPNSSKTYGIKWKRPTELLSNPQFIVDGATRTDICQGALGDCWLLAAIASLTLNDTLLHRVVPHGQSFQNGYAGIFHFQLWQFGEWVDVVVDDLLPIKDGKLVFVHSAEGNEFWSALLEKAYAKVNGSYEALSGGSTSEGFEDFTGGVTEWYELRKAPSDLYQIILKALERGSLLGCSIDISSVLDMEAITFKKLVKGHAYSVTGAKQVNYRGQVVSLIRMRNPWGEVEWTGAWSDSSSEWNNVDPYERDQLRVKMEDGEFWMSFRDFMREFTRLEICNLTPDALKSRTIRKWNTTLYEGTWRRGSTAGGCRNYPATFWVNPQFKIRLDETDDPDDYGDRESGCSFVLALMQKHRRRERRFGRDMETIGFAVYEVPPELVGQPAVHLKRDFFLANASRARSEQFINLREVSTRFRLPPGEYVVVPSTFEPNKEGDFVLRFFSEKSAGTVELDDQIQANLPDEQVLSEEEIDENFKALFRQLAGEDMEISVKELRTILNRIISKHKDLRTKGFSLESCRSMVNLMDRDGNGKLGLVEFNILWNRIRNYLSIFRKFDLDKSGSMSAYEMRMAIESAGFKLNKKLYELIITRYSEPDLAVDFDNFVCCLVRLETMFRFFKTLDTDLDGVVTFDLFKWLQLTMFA
The experiment is described as follows: Inhibition of calpain I activity. Conditions: Table III.

For a further experiment, the target named is T2, cathepsin B (Homo sapiens, UniProt P07858).
T2 construct: purchased Calbiochem 219364
The experiment can be described thus: Inhibition of cathepsin B. Conditions: Table III; for inhibition at 1 µM: read-out: Cat B % I @ 1 uM; for IC50: read-out: Cat B IC50. The protocol: (§1) Additionally,the order of reagents added to the plate was altered because both enzymes are constitutively active. Following inhibitor addition to the plates, appropriate 2× concentrated stock dilutions of the enzyme preparations were made in assay buffer and 100 μl added to each well. The assay was initiated by addition of 100 μl of 2× concentrated stock dilution of substrate in assay buffer.

The target of the next experiment is T3, thrombin (Homo sapiens, UniProt P00734).
T3 construct: purchased Sigma Chem. Co. T-7009
The experiment is described as follows: Inhibition of thrombin. Conditions: Table III; 10 uM; read-out: Thrombin % I @ 10 uM.

The next experiment concerns the target T4, α-chymotrypsin (Bos taurus, UniProt P00766).
T4 construct: purchased Sigma Chem. Co. C-3142
The experiment can be described thus: Inhibition of α-chymotrypsin. Conditions: Table III; 10 uM; read-out: Chymotrypsin % I @ 10 uM. A digest of the protocol:
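Enzyme added to inhibitor first, then reaction started with substrate; no calcium activation needed as enzyme is constitutively active. Fluorogenic substrate hydrolysis read every 5 min up to 30 min ([…]).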

The next experiment addresses T5, cathepsin L (Homo sapiens, UniProt P07711).
T5 construct: purchased Calbiochem 219402
The experiment can be described thus: Inhibition of cathepsin L. Conditions: Table III; 1 uM; read-out: Cat L % I @ 1 uM. As for the experimental part:
as §1

Square brackets hold non-standard residues; d marks the D form. Peptide text beside a SMILES is read from it. * marks the point of attachment. ξ: configuration not given here. d(αMeF) = C[C@@](N)(Cc1ccccc1)C(=O)O; 2Pal = N[C@@H](Cc1ccccn1)C(=O)O; 2Thi = N[C@@H](Cc1cccs1)C(=O)O; d2Thi = N[C@H](Cc1cccs1)C(=O)O; Tle = CC(C)(C)[C@H](N)C(=O)O; Tos = Cc1ccc(S(=O)(=O)*)cc1; ξαMeL = CC(C)CC(C)(N)C(=O)O; ξF = NC(Cc1ccccc1)C(=O)O; Bn = c1ccc(C*)cc1; Ms = CS(=O)(=O)*

T5 sequence (P07711 114-288 limits assumed): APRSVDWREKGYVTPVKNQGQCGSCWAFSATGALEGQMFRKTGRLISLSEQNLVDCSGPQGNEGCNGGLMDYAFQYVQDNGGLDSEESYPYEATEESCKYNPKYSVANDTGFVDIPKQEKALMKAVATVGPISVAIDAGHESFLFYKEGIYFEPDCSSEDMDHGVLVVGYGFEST
T5 sequence (P07711 292-333 limits assumed): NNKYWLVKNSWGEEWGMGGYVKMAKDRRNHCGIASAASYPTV

For `CS(=O)(=O)N[C@H](C(=O)N[C@H](C=O)Cc1ccccc1)c1cccs1` [Compound 97], the IC50 in experiment [1] is 37 nM. Further, the inhibition at 0.1 µM in experiment [1] came to 79%. Moreover, the results for the inhibition at 1 µM on cathepsin B and on cathepsin L were 89% and 100%, respectively. In addition, the inhibition at 10 µM is 4% at thrombin and 25% at α-chymotrypsin.
Regarding `CS(=O)(=O)N[C@@H](C(=O)N[C@H](C=O)Cc1ccccc1)c1cccs1` [Compound 98], the IC50 was 8 nM in experiment [1] and 16 nM at cathepsin B. Further, the inhibition at 0.1 µM in experiment [1] is 96%. For the same molecule, the inhibition at 1 µM was 98% on cathepsin B and 100% on cathepsin L. In addition, the inhibition at 10 µM was determined as 16% at thrombin and 49% at α-chymotrypsin.
For the molecule `CS(=O)(=O)N[C@@H](Cc1cccs1)C(=O)N[C@H](C=O)Cc1ccccc1` [Compound 99] (Ms-[2Thi]-Phe-aldehyde), the IC50 in experiment [1] stood at 62 nM. For the same molecule, the inhibition at 0.1 µM in experiment [1] came to 66%. In addition, the inhibition at 1 µM worked out at 96% on cathepsin B and 100% on cathepsin L. Further, the figures for the inhibition at 10 µM on thrombin and on α-chymotrypsin were 0% and 13%, respectively.
As to `CS(=O)(=O)N[C@H](Cc1cccs1)C(=O)N[C@H](C=O)Cc1ccccc1` [Compound 100] (Ms-[d2Thi]-Phe-aldehyde), the IC50 amounted to 15 nM in experiment [1] and 31 nM at cathepsin B. Further, the inhibition at 0.1 µM in experiment [1] came to 96%. Also, the inhibition at 1 µM on cathepsin B worked out at 97%; on cathepsin L it was 100%. Also, the inhibition at 10 µM on thrombin and at α-chymotrypsin was 0% throughout.
For the molecule `CS(=O)(=O)N1CCC[C@@H]1C(=O)N[C@H](C=O)Cc1ccccc1` [Compound 101] (Ms-[dP]-Phe-aldehyde), in experiment [1], the 50% inhibitory concentration (IC50) was found to be 53 nM. The inhibition at 0.1 µM in experiment [1] amounted to 84%. The inhibition at 1 µM came out at 46% at cathepsin B and 100% at cathepsin L. Besides, the figures for the inhibition at 10 µM at thrombin and at α-chymotrypsin were 0% and 2%, respectively.
On to `O=C[C@H](Cc1ccccc1)NC(=O)[C@H]1CCCN1S(=O)(=O)Cc1ccccc1` [Compound 102], for which, in experiment [1], the half-maximal inhibitory concentration (IC50) was found to be 72 nM. In experiment [1], the inhibition at 0.1 µM was 63%. Also, the figures for the inhibition at 1 µM on cathepsin B and on cathepsin L were 69% and 73%, respectively. For the same molecule, the results for the inhibition at 10 µM at thrombin and at α-chymotrypsin were 7% and 0%, respectively.
As to `CC(=O)Nc1ccc(S(=O)(=O)N2CCC[C@@H]2C(=O)N[C@H](C=O)Cc2ccccc2)cc1` [Compound 103], the half-inhibitory concentration (IC50) in experiment [1] came to 71 nM. Moreover, the inhibition at 0.1 µM in experiment [1] amounted to 37%. The inhibition at 1 µM on cathepsin B amounted to 40%; at cathepsin L, 56%. In addition, the figures for the inhibition at 10 µM on thrombin and on α-chymotrypsin were 3% and 26%, respectively.
Regarding `C[C@@H](NS(=O)(=O)c1ccccc1)C(=O)N[C@H](C=O)Cc1ccccc1` [Compound 104], the IC50 in experiment [1] turned out to be 93 nM. The inhibition at 0.1 µM in experiment [1] was determined as 45%. Besides, the inhibition at 1 µM at cathepsin B came out at 86%; at cathepsin L it was 97%. Further, the results for the inhibition at 10 µM at thrombin and on α-chymotrypsin were 7% and 6%, respectively.
`C[C@](Cc1ccccc1)(NS(C)(=O)=O)C(=O)NC(C=O)Cc1ccccc1` (stereo partly drawn) [Compound 105] (Ms-[d(αMeF)]-[ξF]-aldehyde): in experiment [1], the inhibition at 0.1 µM came out at 9%. The inhibition at 1 µM at cathepsin B was found to be 45%; on cathepsin L, 71%. For the same molecule, the inhibition at 10 µM on thrombin was found to be 0%; on α-chymotrypsin it was 10%.
Take `CS(=O)(=O)N[C@H](CSCc1ccccc1)C(=O)N[C@H](C=O)Cc1ccccc1` [Compound 106] (Ms-[dC](Bn)-Phe-aldehyde): the IC50 in experiment [1] worked out at 8 nM. Further, the inhibition at 0.1 µM in experiment [1] was 95%. In addition, the inhibition at 1 µM came to 92% on cathepsin B and 100% at cathepsin L. In addition, the figures for the inhibition at 10 µM on thrombin and at α-chymotrypsin were 7% and 16%, respectively.
With `CS(=O)(=O)N[C@H](COCc1ccccc1)C(=O)N[C@H](C=O)Cc1ccccn1` [Compound 109] (Ms-[dS](Bn)-[2Pal]-aldehyde), in experiment [1], the IC50 was 40 nM. Also, the inhibition at 0.1 µM in experiment [1] came to 59%. Besides, the inhibition at 1 µM stood at 70% at cathepsin B and 98% at cathepsin L. The inhibition at 10 µM on thrombin and on α-chymotrypsin was 0% each time.
Consider `CC(C)CC(C)(C=O)NC(=O)[C@@H](COCc1ccccc1)NS(C)(=O)=O` (stereo partly drawn) [Compound 110] (Ms-[dS](Bn)-[ξαMeL]-aldehyde), for which the inhibition at 0.1 µM in experiment [1] was determined as 10%. The values for the inhibition at 1 µM on cathepsin B and at cathepsin L were 12% and 83%, respectively. In addition, the inhibition at 10 µM on thrombin and on α-chymotrypsin was 0% in each case.
For the molecule `CC(C)(C)[C@@H](C=O)NC(=O)[C@@H](COCc1ccccc1)NS(C)(=O)=O` [Compound 111] (Ms-[dS](Bn)-[Tle]-aldehyde), in experiment [1], the inhibition at 0.1 µM turned out to be 27%. In addition, the results for the inhibition at 1 µM on cathepsin B and on cathepsin L were 10% and 91%, respectively. Further, the inhibition at 10 µM on thrombin came out at 0%; at α-chymotrypsin, 16%.
Regarding `O=C[C@H](Cc1ccccc1)NC(=O)[C@H]1C[C@@H](OS(=O)(=O)c2ccccc2)CN1S(=O)(=O)c1ccccc1` [Compound 112], in experiment [1], the inhibition at 0.1 µM came to 7%. Further, the inhibition at 1 µM on cathepsin B is 25%; at cathepsin L it was 100%. Also, the figures for the inhibition at 10 µM at thrombin and at α-chymotrypsin were 0% and 9%, respectively.
On to `Cc1ccc(S(=O)(=O)O[C@H]2C[C@H](C(=O)N[C@H](C=O)Cc3ccccc3)N(S(=O)(=O)c3ccccc3)C2)cc1` [Compound 113], for which the inhibition at 0.1 µM in experiment [1] was found to be 11%. Besides, the inhibition at 1 µM on cathepsin B was 47%; at cathepsin L, 94%. Moreover, the inhibition at 10 µM on thrombin and on α-chymotrypsin was 0% in each case.
For the molecule `Cc1ccc(S(=O)(=O)N2C[C@@H](N=[N+]=[N-])C[C@@H]2C(=O)N[C@H](C=O)Cc2ccccc2)cc1` [Compound 114], in experiment [1], the inhibition at 0.1 µM was found to be 85%. For the same molecule, the values for the inhibition at 1 µM on cathepsin B and at cathepsin L were 24% and 100%, respectively. Moreover, the inhibition at 10 µM at thrombin was 3%; at α-chymotrypsin, 9%.
With `CS(=O)(=O)N[C@H](COCc1ccccc1)C(=O)N[C@H](C=NNC(N)=O)Cc1ccccc1` [Compound 115], the inhibition at 0.1 µM in experiment [1] amounted to 0%. Also, the inhibition at 1 µM was 47% at cathepsin B and 94% at cathepsin L. In addition, the inhibition at 10 µM at thrombin and on α-chymotrypsin was 0% in each case.
In the case of `C[N+]([O-])=C[C@H](Cc1ccccc1)NC(=O)[C@@H](COCc1ccccc1)NS(C)(=O)=O` [Compound 116], in experiment [1], the inhibition at 0.1 µM amounted to 4%. Also, the inhibition at 1 µM was found to be 96% at cathepsin B and 100% at cathepsin L. For the same molecule, the inhibition at 10 µM on thrombin and on α-chymotrypsin was 0% throughout.
In the case of `CS(=O)(=O)N[C@H](COCc1ccccc1)C(=O)N[C@H](C=[N+]([O-])Cc1ccccc1)Cc1ccccc1` [Compound 117], the inhibition at 0.1 µM in experiment [1] stood at 21%. In addition, the inhibition at 1 µM on cathepsin B stood at 95%; at cathepsin L it was 100%. In addition, the inhibition at 10 µM on thrombin and at α-chymotrypsin was 0% throughout.
As to `CS(=O)(=O)N[C@H](COCc1ccccc1)C(=O)N[C@H](C=NO)Cc1ccccc1` [Compound 118], the inhibition at 0.1 µM in experiment [1] was 31%. Further, the inhibition at 1 µM on cathepsin B came to 33%; on cathepsin L it was 99%. Further, the inhibition at 10 µM at thrombin is 0%; on α-chymotrypsin it was 8%.
On to `CON=C[C@H](Cc1ccccc1)NC(=O)[C@@H](COCc1ccccc1)NS(C)(=O)=O` [Compound 119], for which, in experiment [1], the inhibition at 0.1 µM was determined as 19%. Further, the inhibition at 1 µM on cathepsin B worked out at 68%; at cathepsin L, 98%. Moreover, the inhibition at 10 µM turned out to be 0% at thrombin and 3% at α-chymotrypsin.
On to `Cc1ccc(S(=O)(=O)N2CCC[C@@H]2C(=O)N[C@H](C=O)Cc2ccccc2)cc1` [Compound 120] (Tos-[dP]-Phe-aldehyde), for which, in experiment [1], the 50% inhibitory concentration (IC50) was 14 nM. In addition, the inhibition at 0.1 µM in experiment [1] is 87%. Further, the values for the inhibition at 1 µM at cathepsin B and on cathepsin L were 50% and 65%, respectively. Besides, the inhibition at 10 µM on thrombin was determined as 0%; on α-chymotrypsin, 12%.

The record behind these values is patent US5852007A, “Cysteine and serine protease inhibitors containing D-amino acid at the P2 position, methods of making same, and methods of using same” (priority 1997, dated 1998).
